Assay results taken from the NIST ThermoML archive (doi:10.1016/j.jct.2016.03.028).

Test: xn = mol fraction of the nth substance listed
Settings: Liquid; for speed of sound: 100 kPa, Frequency=3 MHz, Sing-around technique in a fixed-path interferometer; for mass density: 101.3 kPa, Vibrating tube method

CCCOCCO [2-propoxyethanol] + CCOS(=O)(=O)[O-].CCn1cc[n+](C)c1
Settings | mass density, 298.15 K [kg/m3] | mass density, 308.15 K [kg/m3] | mass density, 318.15 K [kg/m3] | speed of sound, 298.15 K [m/s] | speed of sound, 308.15 K [m/s] | speed of sound, 318.15 K [m/s]
x2 = 0 | 908.31 | 899.5 | 890.56 | 1299.9 | 1265 | 1230.1
x2 = 0.0496 | 936.15 | 927.63 | 919 | 1322.2 | 1288.6 | 1254.9
x2 = 0.0901 | 957.3 | 948.98 | 940.58 | 1339.6 | 1306.8 | 1274
x2 = 0.1345 | 979.08 | 970.94 | 962.75 | 1358 | 1326.1 | 1294.2
x2 = 0.1738 | 997.17 | 989.17 | 981.14 | 1374 | 1342.8 | 1311.6
x2 = 0.2568 | 1032.34 | 1024.6 | 1016.84 | 1407.7 | 1377.8 | 1347.8
x2 = 0.3477 | 1066.65 | 1059.1 | 1051.57 | 1444.5 | 1415.6 | 1386.9
x2 = 0.4406 | 1097.96 | 1090.57 | 1083.21 | 1482.1 | 1454.2 | 1426.5
x2 = 0.5477 | 1130.29 | 1123.06 | 1115.85 | 1525.4 | 1498.4 | 1471.8
x2 = 0.6478 | 1157.57 | 1150.45 | 1143.37 | 1565.2 | 1539 | 1513.2
x2 = 0.7729 | 1188.39 | 1181.41 | 1174.46 | 1612.3 | 1587 | 1562
x2 = 0.8263 | 1200.6 | 1193.67 | 1186.78 | 1630.9 | 1606 | 1581.3
x2 = 0.8757 | 1211.4 | 1204.51 | 1197.67 | 1647 | 1622.3 | 1597.9
x2 = 0.9346 | 1223.63 | 1216.76 | 1209.98 | 1664.4 | 1639.9 | 1615.7
